One test has as its system A549. The experiment in a line: MTT cell growth assay, 48 h. It is filed as cell-based. Particulars: Homo sapiens; A549, 48 h, 2000 cells/well; ±SE; read-out: IC50 from MTT assays. The protocol: (§1) However, as the concentration increased from 2.5 µM onwards, the effect was reversed. Similarly, DJ-Morpholine decreased the cell growth by ~30% at 0.6215 µM, while the effect remained saturated as the concentration increased. This trend was also observed in A549 lung cancer and A375M melanoma cells.
(§2) Figure 7 DJ4 analogs reduce cell growth in melanoma, breast, and lung cancer cells. MTT assay was performed to evaluate the effect of DJ4 analogs on cell growth after 48 h of treatment. IC50 values were calculated with nonlinear least squares regression curve fit by GraphPad prism. […] The error bars indicate SD from triplicates of the experiment.
(§3) The cytotoxic effect of DJ4 was studied in H1299, H226, A549, H522, H23, and H460 non-small cell lung cancer cells. The cells were seeded into 96-well plates with confluence ([…]). The cells were further treated with DMSO or DJ4 for 72 h. To study the effects of analogs, A549, A375M, and MDA-MB-231 cells were plated with low density (2000 cells/well) in a 96-well plate and grown overnight at 37 °C (with 5% CO2). Cells were treated with the analogs at the concentration of 0–10 µM for 48 h. At the end of the treatment period, cells were incubated with a tetrazolium dye MTT (3-(4,5-dimethylthiazol-2-yl)-2,5-diphenyltetrazolium bromide) reagent (Sigma) at 37 °C for 3 h to develop formazan crystals. The media was siphoned off and crystals were dissolved in DMSO and mixed gently on rocker for 5 min. Absorbance was read at 570 nm and 630 nm (background) wavelength. IC50 values were calculated from non-linear regression curve fit by using GraphPad Prism 5.0 software.

Another test concerns A375M. The experiment in a line: MTT cell growth assay, 48 h. The following applies: Homo sapiens, 2000 cells/well, ±SE, read-out: IC50 from MTT assays. It is filed as cell-based. The protocol:
as §1, §2, §3
In general terms: Tetrazolium dyes change colour on reduction, which living cells bring about.

For another test, the system named is MDA-MB-231. The experiment in a line: MTT cell growth assay, 48 h. It is filed as cell-based, human. The following applies: for IC50: Homo sapiens, MDA-MB-231, 48 h, 2000 cells/well, ±SE, read-out: IC50 from MTT assays. The protocol:
as §1, §2, §3

Test [1] relates to MDA-MB-231 breast cancer cells. The experiment in a line: Cell migration (scratch/wound healing) assay. It is filed as cell-based, human. The following applies: MDA-MB-231, 2.5 µM for 24 h, then 9 h migration in compound-free medium; vehicle = 100%. The protocol:
Lastly, we examined the effects of these four analogs on migration of MDA-MB-231 breast cancer cells. Scratch assays were performed on cells treated with the various analogs for 24 h and then allowed to migrate into the scratched area for 9 h in compound-free media. […] Due to limited solubility, DJ-Morpholine was not tested for its effect on cell migration.
Figure 9 DJ4 analogs inhibit migration of MDA-MB-231 breast cancer cells. (A) MDA-MB-231 cells were treated with 2.5 µM concentration of DJ4 analogs for 24 h. At the end of the treatment period, uniform scratches were made across the monolayer of cells. The cells were allowed to migrate in the scratched area for 9 h in a compound-free medium. The cells were stained with calcein (green) and propidium iodide (red) to study live and dead cell populations in the scratched area. (B) The distance migrated by the treated cells was normalized to vehicle control treated cells. Statistical significance was determined by one-way ANOVA followed by Dunnett’s multiple comparison test. The error bars indicate SEM from triplicates of the experiment. *** p < 0.001. TEXT PRINTED IN THE PICTURE: (B) DMSO: % Migration: 100 | (B) DJ4: % Migration: 32 *** | (B) DJ110: % Migration: 28 *** | (B) DJ Allyl: % Migration: 36 *** | (B) DJE4: % Migration: 48 ***
Migration (scratch/wound healing) assays were performed using published procedures. Briefly, MDA-MB-231 cells were grown to confluence, and cells were treated with DMSO (vehicle control), DJ4, and its active analogs at 2.5 µM concentration for 24 h. At the end of the treatment period, uniform scratches were made in the monolayer of cells. The cells were allowed to migrate for 9 h in a compound-free medium. Light microscopic images were obtained at 0 h and 9 h after creating scratches. The width of the scratches was measured by using AxioVision software (AxioVision Inc., Carl Zeiss, Jena, Germany). The percentage of migration in each treatment at 9 h was calculated in comparison to 0 h readings. Furthermore, the percent migration in treatment groups was normalized to vehicle control (considering 100% migration). The experiment was performed in triplicate. Viability of the cells at the migration area was studied to confirm that the anti-migration effect of the analogs at the tested concentration and duration is independent of cell death. At the end of the migration period, cells were stained with calcein (Invitrogen, Waltham, MA, USA) and propidium iodide (Invitrogen, Waltham, MA, USA) dyes, as per the manufacturer’s protocol, which stain the live and dead cells, respectively.

The next test addresses T1, MRCKα (Homo sapiens, UniProt Q5VT25).
T1 construct: purchased Invitrogen
The experiment in a line: Cell-free biochemical kinase activity assay (pMYPT1 immunoblot). On the procedure:
Cell-free biochemical kinase inhibitory activity of these compounds was evaluated at 1 µM concentration using the previously described ROCK1 kinase activity assay. Among the 27 analogs, we identified four analogs (DJ110, DJ-Allyl, DJE4, and DJ-Morpholine) with >50% inhibition of MYPT1 phosphorylation (Supplementary Figure S1). These four compounds were selected for further evaluation at 1 µM and 0.1 µM for their in vitro inhibitory activity against ROCK1, ROCK2, MRCKα, and MRCKβ kinases.
Cell-free biochemical kinase activity was assayed using published procedures. Briefly, recombinant ROCK1 (9.48 nM) or ROCK2 (8.26 nM; Invitrogen, Waltham, MA, USA) was incubated in the presence of 0.1 and 1 µM concentrations of DJ4 analogs or DMSO in ROCK-assay buffer at room temperature (RT) for 10 min. MRCKα and MRCKβ (2 ng/µL; Invitrogen) assays were performed in the assay buffer recommended by the manufacturer. Recombinant MYPT1 (20 ng/µL; Millipore) and ATP (5 µM) were added to initiate the reaction. The reaction was incubated at 30 °C for 20 min. Western blot analysis of these samples for phosphorylation of MYPT1 was performed as per the method mentioned in our earlier publication. Briefly, an equal amount of sample was loaded on Bis-Tris gel (Novex, Life Technologies, Carlsbad, CA, USA), proteins were electrophoresed and transferred to PVDF membranes. The blots were probed with anti-pMYPT1 (Thr696) or anti-MYPT1 (Millipore) antibodies.
For orientation: Immunoblotting shows a protein as a band on a membrane.

Data on five molecules can be found in PMC10458458, “Characterization of Anticancer Effects of the Analogs of DJ4, a Novel Selective Inhibitor of ROCK and MRCK Kinases” (Pharmaceuticals, 2023).

T1 sequence (Q5VT25 whole entry): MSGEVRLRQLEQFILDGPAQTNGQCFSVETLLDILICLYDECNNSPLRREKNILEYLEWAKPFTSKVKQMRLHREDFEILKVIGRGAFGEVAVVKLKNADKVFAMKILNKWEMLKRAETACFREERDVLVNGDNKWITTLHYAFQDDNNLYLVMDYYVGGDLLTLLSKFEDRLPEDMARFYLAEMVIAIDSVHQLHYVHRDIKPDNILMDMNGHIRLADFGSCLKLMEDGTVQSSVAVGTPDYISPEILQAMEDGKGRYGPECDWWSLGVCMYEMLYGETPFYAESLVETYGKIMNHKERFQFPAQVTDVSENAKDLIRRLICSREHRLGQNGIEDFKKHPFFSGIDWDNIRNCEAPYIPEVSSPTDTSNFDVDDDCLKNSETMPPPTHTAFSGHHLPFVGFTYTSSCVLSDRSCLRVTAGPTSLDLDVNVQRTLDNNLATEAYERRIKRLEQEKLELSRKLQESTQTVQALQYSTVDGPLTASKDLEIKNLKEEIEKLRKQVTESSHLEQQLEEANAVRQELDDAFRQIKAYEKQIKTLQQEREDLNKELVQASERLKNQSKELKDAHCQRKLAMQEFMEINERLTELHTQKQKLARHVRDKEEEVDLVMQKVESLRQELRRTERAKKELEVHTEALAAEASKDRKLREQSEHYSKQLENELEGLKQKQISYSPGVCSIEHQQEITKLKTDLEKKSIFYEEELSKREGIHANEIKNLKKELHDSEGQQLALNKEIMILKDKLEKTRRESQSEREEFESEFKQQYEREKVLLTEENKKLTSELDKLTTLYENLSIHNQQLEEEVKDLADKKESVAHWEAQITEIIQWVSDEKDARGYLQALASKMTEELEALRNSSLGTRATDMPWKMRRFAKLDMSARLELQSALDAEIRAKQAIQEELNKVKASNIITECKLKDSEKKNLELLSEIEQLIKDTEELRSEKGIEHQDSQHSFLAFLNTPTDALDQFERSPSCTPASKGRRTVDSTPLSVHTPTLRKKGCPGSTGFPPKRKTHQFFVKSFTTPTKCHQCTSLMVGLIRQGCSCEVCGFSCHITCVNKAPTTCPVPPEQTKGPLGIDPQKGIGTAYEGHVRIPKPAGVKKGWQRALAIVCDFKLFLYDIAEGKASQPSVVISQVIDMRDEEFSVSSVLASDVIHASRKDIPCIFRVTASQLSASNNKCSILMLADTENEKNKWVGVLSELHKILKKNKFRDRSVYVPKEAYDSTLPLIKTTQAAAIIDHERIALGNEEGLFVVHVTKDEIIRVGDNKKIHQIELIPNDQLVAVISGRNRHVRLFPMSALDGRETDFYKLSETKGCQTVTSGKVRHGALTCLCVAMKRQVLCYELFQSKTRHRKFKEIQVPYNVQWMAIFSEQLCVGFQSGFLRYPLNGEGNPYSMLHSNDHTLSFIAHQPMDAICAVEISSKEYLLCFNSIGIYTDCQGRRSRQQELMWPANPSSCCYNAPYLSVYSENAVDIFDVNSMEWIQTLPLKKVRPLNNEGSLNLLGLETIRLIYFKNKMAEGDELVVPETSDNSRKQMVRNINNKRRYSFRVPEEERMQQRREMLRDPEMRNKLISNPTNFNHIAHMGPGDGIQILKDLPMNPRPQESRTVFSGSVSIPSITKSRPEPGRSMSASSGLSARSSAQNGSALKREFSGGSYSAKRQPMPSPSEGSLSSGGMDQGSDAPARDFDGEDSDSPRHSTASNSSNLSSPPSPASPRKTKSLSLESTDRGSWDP

The term IC50 denotes the concentration at which inhibition is half-maximal. `O=C1N/C(=N\CCc2ccccc2)S/C1=C/c1c[nH]c2ncccc12` [DJ4]: the IC50 in the test on A549 amounted to 5.4 ± 1.19 µM; with A375M, 1.1 ± 0.15 µM; in the test with MDA-MB-231, 2.3 ± 0.23 µM. Further, the “% Migration compared to control” value in test [1] worked out at 32%. In addition, the “inhibition of kinase activity (qualitative immunoblot)” value (“inhibition of kinase activity” below) on MRCKα (0.1 µM) was “ineffective”; at MRCKα (1 µM), “significantly inhibit”.
Consider `O=C1N/C(=N\Cc2ccccc2)S/C1=C/c1c[nH]c2ncccc12` [DJ110], for which the IC50 in the test with A549 is 0.88 ± 0.16 µM; in the test on A375M, 0.49 ± 0.03 µM; in the test on MDA-MB-231, 0.65 ± 0.07 µM. The “% Migration compared to control” value in test [1] is reported as 28%. Besides, the “inhibition of kinase activity” value against MRCKα (0.1 µM) is “significantly inhibited”; on MRCKα (1 µM) it was “significantly inhibit”.
Take `C=CC/N=C1\NC(=O)/C(=C\c2c[nH]c3ncccc23)S1` [DJ-Allyl]: the IC50 in the test with A549 is 5 ± 2.2 µM; with A375M it was 4.7 ± 0.52 µM; with MDA-MB-231, 4.1 ± 1.23 µM. The “% Migration compared to control” value in test [1] worked out at 36%. Also, the “inhibition of kinase activity” value at MRCKα (1 µM) is “minimal inhibition”.
In the case of `O=C1N/C(=N\CCN2CCOCC2)S/C1=C/c1c[nH]c2ncccc12` [DJ-Morpholine], the IC50 with A549, in the test on A375M and with MDA-MB-231 was greater than 10 µM throughout. The “decrease in cell growth” value with MDA-MB-231 (MDA-MB-231, 0.6215 µM, 48 h, effect saturated at higher concentrations) was ~ 30%. Besides, the “inhibition of kinase activity” value against MRCKα (1 µM) is reported as “minimal inhibition”.
On to `CC/N=C1\NC(=O)/C(=C\c2c[nH]c3ncccc23)S1` [DJE4], for which the IC50 with A549 was found to be 6.1 ± 1.69 µM; in the test with A375M it was 5.1 ± 0.32 µM; in the test on MDA-MB-231 it was 5.9 ± 1.63 µM. Also, the “% Migration compared to control” value in test [1] is listed as 48%. Also, the “inhibition of kinase activity” value against MRCKα (1 µM) is listed as “minimal inhibition”.
